Measured values published in ChEMBL document CHEMBL1240436, “Synthesis and biological evaluation of novel 2,4'-bis substituted diphenylamines as anticancer agents and potential epidermal growth factor receptor tyrosine kinase inhibitors” (Eur J Med Chem, 2010).

System: MCF7
Assay: Cytotoxicity against human MCF7 cells after 48 hrs by SRB assay
Assay type: functional, cell-based

Compound	IC50 [nM]
COc1ccc(/C=N/NC(=O)c2ccc(Nc3ccccc3C(=O)N/N=C/c3ccc(OC)c(OC)c3)cc2)cc1OC	810
Sc1nnc(-c2ccc(Nc3ccccc3-c3nnc(S)o3)cc2)o1	2000
c1ccc(CSc2nnc(-c3ccc(Nc4ccccc4-c4nnc(SCc5ccccc5)o4)cc3)o2)cc1	730
C=CCSc1nnc(-c2ccc(Nc3ccccc3-c3nnc(SCC=C)o3)cc2)o1	1050
CN(C)c1ccc(/C=N/NC(=O)c2ccc(Nc3ccccc3C(=O)N/N=C/c3ccc(N(C)C)cc3)cc2)cc1	1230
CCNc1nnc(-c2ccc(Nc3ccccc3-c3nnc(NCC)s3)cc2)s1	940
CCn1c(S)nnc1-c1ccc(Nc2ccccc2-c2nnc(S)n2CC)cc1	2380
